From paper PMC5218480 (PLoS ONE, 2017)

Test system: MV-4-11 cells
Test: Gene expression microarray analysis (Affymetrix PrimeView) and GSEA
Type: cell-based, human
Parameters: RFU PODN (11730768_x_at) / Fold change /veh PODN (11730768_x_at) / RFU LINC00158 (11744669_a_at) / Fold change /veh LINC00158 (11744669_a_at) / RFU DUSP10 (11751237_a_at) / Fold change /veh DUSP10 (11751237_a_at) / RFU ID3 (11757404_x_at) / Fold change /veh ID3 (11757404_x_at) / RFU PLEKHG5 (11737974_s_at) / Fold change /veh PLEKHG5 (11737974_s_at) / RFU LRRC4B (11730491_at) / Fold change /veh LRRC4B (11730491_at) / RFU GIMAP4 (11747438_a_at) / Fold change /veh GIMAP4 (11747438_a_at) / RFU KRT8 (11758183_x_at) / Fold change /veh KRT8 (11758183_x_at) / RFU CNN1 (11734310_a_at) / Fold change /veh CNN1 (11734310_a_at) / RFU VPS37D (11726825_at) / Fold change /veh VPS37D (11726825_at) / RFU C10orf10 (11716522_x_at) / Fold change /veh C10orf10 (11716522_x_at) / RFU KIR2DL2 /// KIR2DL4 /// KIR2DL5A /// KIR2DL5B /// KIR2DS1 /// KIR2DS2 /// KIR2DS3 /// KIR2DS4 /// KIR3DL3 /// KIR3DL3 /// KIR3DS1 (11738374_at) / Fold change /veh KIR2DL2 /// KIR2DL4 /// KIR2DL5A /// KIR2DL5B /// KIR2DS1 /// KIR2DS2 /// KIR2DS3 /// KIR2DS4 /// KIR3DL3 /// KIR3DL3 /// KIR3DS1 (11738374_at) / RFU C1QL1 (11718748_at) / Fold change /veh C1QL1 (11718748_at) / RFU TMPRSS4 (11747572_a_at) / Fold change /veh TMPRSS4 (11747572_a_at) / RFU HAMP (11756126_x_at) / Fold change /veh HAMP (11756126_x_at) / RFU RNFT2 (11725882_a_at) / Fold change /veh RNFT2 (11725882_a_at) / RFU NR4A2 (11747474_a_at) / Fold change /veh NR4A2 (11747474_a_at) / RFU ABCC12 (11746883_a_at) / Fold change /veh ABCC12 (11746883_a_at) / RFU TMEM136 (11760407_x_at) / Fold change /veh TMEM136 (11760407_x_at) / RFU CLDN22 /// WWC2 (11732394_at) / Fold change /veh CLDN22 /// WWC2 (11732394_at) / RFU HLA-DPB1 (11760878_x_at) / Fold change /veh HLA-DPB1 (11760878_x_at) / RFU SPINT1 (11716480_a_at) / Fold change /veh SPINT1 (11716480_a_at) / RFU GAP43 (11754022_s_at) / Fold change /veh GAP43 (11754022_s_at) / RFU A4GNT (11735810_at) / Fold change /veh A4GNT (11735810_at) / RFU PRB3 (11715151_x_at) / Fold change /veh PRB3 (11715151_x_at) / RFU TUBB4B (11761932_at) / Fold change /veh TUBB4B (11761932_at) / RFU CAPN14 (11732068_a_at) / Fold change /veh CAPN14 (11732068_a_at) / RFU TMCC2 (11721928_a_at) / Fold change /veh TMCC2 (11721928_a_at) / RFU IRGQ (11745062_a_at) / Fold change /veh IRGQ (11745062_a_at) / RFU FAM174B (11720279_a_at) / Fold change /veh FAM174B (11720279_a_at) / RFU TMPRSS4 (11748680_a_at) / Fold change /veh TMPRSS4 (11748680_a_at) / RFU FAM212B (11763350_a_at) / Fold change /veh FAM212B (11763350_a_at) / RFU PLEKHG5 (11743358_a_at) / Fold change /veh PLEKHG5 (11743358_a_at) / RFU ZSCAN30 (11745921_a_at) / Fold change /veh ZSCAN30 (11745921_a_at) / RFU CMKLR1 (11741424_a_at) / Fold change /veh CMKLR1 (11741424_a_at) / RFU LOC101060620 /// MAPK8IP1 (11723275_at) / Fold change /veh LOC101060620 /// MAPK8IP1 (11723275_at) / RFU SPTSSB (11747773_x_at) / Fold change /veh SPTSSB (11747773_x_at) / RFU PRSS12 (11739890_at) / Fold change /veh PRSS12 (11739890_at) / RFU BIN1 (11741810_x_at) / Fold change /veh BIN1 (11741810_x_at) / RFU WNT11 (11732464_a_at) / Fold change /veh WNT11 (11732464_a_at) / RFU C10orf10 (11716521_a_at) / Fold change /veh C10orf10 (11716521_a_at) / RFU C5orf56 (11738089_at) / Fold change /veh C5orf56 (11738089_at) / RFU CYB561 (11721691_x_at) / Fold change /veh CYB561 (11721691_x_at) / RFU ANKRD19P (11752326_a_at) / Fold change /veh ANKRD19P (11752326_a_at) / RFU OR2T12 /// OR2T33 /// OR2T8 (11738714_s_at) / Fold change /veh OR2T12 /// OR2T33 /// OR2T8 (11738714_s_at) / RFU VCAN (11748164_a_at) / Fold change /veh VCAN (11748164_a_at) / RFU JSRP1 (11732532_at) / Fold change /veh JSRP1 (11732532_at) / RFU KRTAP10-11 (11738290_x_at) / Fold change /veh KRTAP10-11 (11738290_x_at) / RFU MYO3A (11730013_a_at) / Fold change /veh MYO3A (11730013_a_at) / RFU EBF3 (11725865_a_at) / Fold change /veh EBF3 (11725865_a_at) / RFU CAMK2N1 (11719241_x_at) / Fold change /veh CAMK2N1 (11719241_x_at) / RFU C5orf56 (11738088_a_at) / Fold change /veh C5orf56 (11738088_a_at) / RFU OLFML3 (11715873_a_at) / Fold change /veh OLFML3 (11715873_a_at) / RFU LOC100653217 /// NTM (11731650_a_at) / Fold change /veh LOC100653217 /// NTM (11731650_a_at) / RFU MAPK11 (11762145_a_at) / Fold change /veh MAPK11 (11762145_a_at) / RFU FIZ1 (11724087_x_at) / Fold change /veh FIZ1 (11724087_x_at) / RFU OASL (11726364_x_at) / Fold change /veh OASL (11726364_x_at) / RFU SOX15 (11748057_x_at) / Fold change /veh SOX15 (11748057_x_at) / RFU CD79A (11719716_a_at) / Fold change /veh CD79A (11719716_a_at) / RFU HIST1H1D (11736915_at) / Fold change /veh HIST1H1D (11736915_at) / RFU CASKIN2 (11723855_a_at) / Fold change /veh CASKIN2 (11723855_a_at) / RFU LOC730098 (11760151_x_at) / Fold change /veh LOC730098 (11760151_x_at) / RFU OR4N2 (11742367_at) / Fold change /veh OR4N2 (11742367_at) / RFU PRRT2 (11749266_a_at) / Fold change /veh PRRT2 (11749266_a_at) / RFU SNX32 (11753110_a_at) / Fold change /veh SNX32 (11753110_a_at) / RFU CDHR5 (11726645_a_at) / Fold change /veh CDHR5 (11726645_a_at) / RFU RCAN1 (11760418_a_at) / Fold change /veh RCAN1 (11760418_a_at) / RFU FAM167A (11723789_a_at) / Fold change /veh FAM167A (11723789_a_at) / RFU FAM26E (11764081_at) / Fold change /veh FAM26E (11764081_at) / RFU ISYNA1 (11749810_s_at) / Fold change /veh ISYNA1 (11749810_s_at) / RFU ACY1 (11761880_at) / Fold change /veh ACY1 (11761880_at) / RFU 11764098_at / Fold change /veh 11764098_at / RFU SAMD14 (11745864_x_at) / Fold change /veh SAMD14 (11745864_x_at) / RFU NPB (11741838_a_at) / Fold change /veh NPB (11741838_a_at) / RFU TMPRSS6 (11731388_a_at) / Fold change /veh TMPRSS6 (11731388_a_at) / RFU KRTAP10-2 (11738614_at) / Fold change /veh KRTAP10-2 (11738614_at) / RFU ARHGAP8 /// PRR5-ARHGAP8 (11727945_x_at) / Fold change /veh ARHGAP8 /// PRR5-ARHGAP8 (11727945_x_at) / RFU KRTAP5-7 /// NADSYN1 (11734609_at) / Fold change /veh KRTAP5-7 /// NADSYN1 (11734609_at) / RFU RASL12 (11751679_a_at) / Fold change /veh RASL12 (11751679_a_at) / RFU CDKN2B (11736163_a_at) / Fold change /veh CDKN2B (11736163_a_at) / RFU PRF1 (11729649_at) / Fold change /veh PRF1 (11729649_at) / RFU, ZNF638 /// ZNF638-IT1 / Fold change vs veh, ZNF638 /// ZNF638-IT1 / RFU, PANK3 / Fold change vs veh, PANK3 / RFU, SH3YL1 / Fold change vs veh, SH3YL1 / RFU, ZEB2 / Fold change vs veh, ZEB2 / RFU, NRIP1 / Fold change vs veh, NRIP1 / RFU, PTTG1IP / Fold change vs veh, PTTG1IP / RFU, CAPN2 / Fold change vs veh, CAPN2 / RFU, MED14 / Fold change vs veh, MED14 / RFU, SNORA58 / Fold change vs veh, SNORA58 / RFU, C1orf63 / Fold change vs veh, C1orf63 / RFU, LRRFIP1 / Fold change vs veh, LRRFIP1 / RFU, NDUFAF7 / Fold change vs veh, NDUFAF7 / RFU, SLC12A2 / Fold change vs veh, SLC12A2 / RFU, IBTK / Fold change vs veh, IBTK / RFU, ESF1 / Fold change vs veh, ESF1 / Fold change vs veh, TMEM50B / RFU, TAOK1 / Fold change vs veh, TAOK1 / RFU, ACBD3 / Fold change vs veh, ACBD3 / RFU, TMA16 / Fold change vs veh, TMA16 / RFU, RWDD3 / Fold change vs veh, RWDD3 / RFU, BCAT1 / Fold change vs veh, BCAT1 / RFU, EDEM3 / Fold change vs veh, EDEM3 / RFU, TMEM33 / Fold change vs veh, TMEM33 / RFU, WDR75 / Fold change vs veh, WDR75 / RFU, AHCTF1 / Fold change vs veh, AHCTF1 / RFU, TFRC / Fold change vs veh, TFRC / RFU, ZDHHC17 / Fold change vs veh, ZDHHC17 / RFU, NOM1 / Fold change vs veh, NOM1 / RFU, ARL8B / Fold change vs veh, ARL8B / RFU, ZBTB11 / Fold change vs veh, ZBTB11 / RFU, TAMM41 / Fold change vs veh, TAMM41 / RFU, KIAA1704 /// LOC100996395 / Fold change vs veh, KIAA1704 /// LOC100996395 / RFU, ING1 / Fold change vs veh, ING1 / RFU, TRMT61B / Fold change vs veh, TRMT61B / RFU, FUBP3 / Fold change vs veh, FUBP3 / RFU, TP53 / Fold change vs veh, TP53 / RFU, TNKS2 / Fold change vs veh, TNKS2 / RFU, ZFP14 / Fold change vs veh, ZFP14 / RFU, ACTR2 / Fold change vs veh, ACTR2 / RFU, PPP3R1 / Fold change vs veh, PPP3R1 / RFU, PIK3R1 / Fold change vs veh, PIK3R1 / RFU, HNRNPA1 / Fold change vs veh, HNRNPA1 / RFU, RNF170 / Fold change vs veh, RNF170 / RFU, ZNF28 / Fold change vs veh, ZNF28 / RFU, RNGTT / Fold change vs veh, RNGTT / RFU, OGT / Fold change vs veh, OGT / RFU, BRD1 / Fold change vs veh, BRD1 / RFU, MARS / Fold change vs veh, MARS / RFU, ZNF655 / Fold change vs veh, ZNF655 / RFU, FAHD1 / Fold change vs veh, FAHD1 / RFU, BDP1 / Fold change vs veh, BDP1 / RFU, LRRCC1 / Fold change vs veh, LRRCC1 / RFU, ARID1A / Fold change vs veh, ARID1A / RFU, ZNF146 / Fold change vs veh, ZNF146 / RFU, ZNF330 / Fold change vs veh, ZNF330 / RFU, GPN3 / Fold change vs veh, GPN3 / RFU, C9orf123 / Fold change vs veh, C9orf123 / RFU, N4BP2L2 / Fold change vs veh, N4BP2L2 / RFU, ARFIP1 / Fold change vs veh, ARFIP1 / RFU, FAM179B / Fold change vs veh, FAM179B / RFU, BCL10 / Fold change vs veh, BCL10 / RFU, UHRF1BP1L / Fold change vs veh, UHRF1BP1L / RFU, BET1 / Fold change vs veh, BET1 / RFU, CNOT2 / Fold change vs veh, CNOT2 / RFU, ZNF268 / Fold change vs veh, ZNF268 / Fold change vs veh, ZNF507 / RFU, DGCR2 / Fold change vs veh, DGCR2 / RFU, WDSUB1 / Fold change vs veh, WDSUB1 / Fold change vs veh, HSP90B1 /// MIR3652 / RFU, ADSS / Fold change vs veh, ADSS / RFU, GK / Fold change vs veh, GK / RFU, ZNF148 / Fold change vs veh, ZNF148 / RFU, TAF9 / Fold change vs veh, TAF9 / RFU, SLC1A5 / Fold change vs veh, SLC1A5 / RFU, SLMO2 / Fold change vs veh, SLMO2 / RFU, ABCC4 / Fold change vs veh, ABCC4 / RFU, LOC101060439 /// RAP1B / Fold change vs veh, LOC101060439 /// RAP1B / RFU, RFX7 / Fold change vs veh, RFX7 / RFU, GTPBP10 / Fold change vs veh, GTPBP10 / RFU, CNEP1R1 / Fold change vs veh, CNEP1R1 / RFU, BIVM-ERCC5 /// ERCC5 / Fold change vs veh, BIVM-ERCC5 /// ERCC5 / RFU, ILF3 / Fold change vs veh, ILF3 / RFU 11762660_at / Fold change /veh 11762660_at / RFU VCAN (11757783_s_at) / Fold change /veh VCAN (11757783_s_at) / RFU DDX43 (11728927_at) / Fold change /veh DDX43 (11728927_at) / RFU KRT8 (11758188_x_at) / Fold change /veh KRT8 (11758188_x_at) / RFU NKD1 (11759106_at) / Fold change /veh NKD1 (11759106_at) / RFU SRD5A1 (11742802_a_at) / Fold change /veh SRD5A1 (11742802_a_at) / RFU TPSAB1 /// TPSB2 (11721975_s_at) / Fold change /veh TPSAB1 /// TPSB2 (11721975_s_at) / RFU GSTM3 (11746129_a_at) / Fold change /veh GSTM3 (11746129_a_at) / RFU IL23R (11737362_x_at) / Fold change /veh IL23R (11737362_x_at) / RFU TMEM51 (11727254_a_at) / Fold change /veh TMEM51 (11727254_a_at) / RFU PIWIL2 (11732686_x_at) / Fold change /veh PIWIL2 (11732686_x_at) / RFU ORM1 (11744905_x_at) / Fold change /veh ORM1 (11744905_x_at) / RFU CCDC152 (11743942_at) / Fold change /veh CCDC152 (11743942_at) / RFU ECM1 (11717891_a_at) / Fold change /veh ECM1 (11717891_a_at) / RFU IL23R (11748794_a_at) / Fold change /veh IL23R (11748794_a_at) / RFU TNFAIP8L3 (11732012_x_at) / Fold change /veh TNFAIP8L3 (11732012_x_at) / RFU MBOAT4 (11741988_at) / Fold change /veh MBOAT4 (11741988_at) / RFU 11764193_at / Fold change /veh 11764193_at / RFU TMEM53 (11763286_at) / Fold change /veh TMEM53 (11763286_at) / RFU MAGEB2 (11727129_at) / Fold change /veh MAGEB2 (11727129_at) / RFU TMEM200A (11744735_a_at) / Fold change /veh TMEM200A (11744735_a_at) / RFU CCDC152 (11751479_a_at) / Fold change /veh CCDC152 (11751479_a_at) / RFU FAM211A (11726209_a_at) / Fold change /veh FAM211A (11726209_a_at) / RFU RGS16 (11746705_a_at) / Fold change /veh RGS16 (11746705_a_at) / RFU VCAN (11755009_s_at) / Fold change /veh VCAN (11755009_s_at) / RFU RHOB (11743442_s_at) / Fold change /veh RHOB (11743442_s_at) / RFU RGS16 (11720943_a_at) / Fold change /veh RGS16 (11720943_a_at) / RFU RGS16 (11720944_at) / Fold change /veh RGS16 (11720944_at) / RFU, VPS4B / Fold change vs veh, VPS4B / RFU, CREB1 / Fold change vs veh, CREB1 / RFU, DNAJC13 / Fold change vs veh, DNAJC13 / RFU, GNAQ / Fold change vs veh, GNAQ / RFU, CDK5R1 / Fold change vs veh, CDK5R1 / RFU, ZRANB3 / Fold change vs veh, ZRANB3 / RFU, CUL4A / Fold change vs veh, CUL4A / RFU, CCNY / Fold change vs veh, CCNY / RFU, UFL1 / Fold change vs veh, UFL1 / RFU, COG3 / Fold change vs veh, COG3 / RFU, DIAPH2 / Fold change vs veh, DIAPH2 / RFU, SKA2 / Fold change vs veh, SKA2 / RFU, AFF3 / Fold change vs veh, AFF3 / RFU, LMF1 / Fold change vs veh, LMF1 / RFU, IPO11 / Fold change vs veh, IPO11 / RFU, DFFB / Fold change vs veh, DFFB / RFU, FOXP1 / Fold change vs veh, FOXP1 / RFU, CARD8 / Fold change vs veh, CARD8 / RFU, STRN3 / Fold change vs veh, STRN3 / RFU, ADK / Fold change vs veh, ADK / RFU, RASSF2 / Fold change vs veh, RASSF2 / RFU, WIPF1 / Fold change vs veh, WIPF1 / RFU, LARP1B / Fold change vs veh, LARP1B / RFU, RASA1 / Fold change vs veh, RASA1 / RFU, RB1 / Fold change vs veh, RB1 / RFU, PPFIA1 / Fold change vs veh, PPFIA1 / RFU, MAT2A / Fold change vs veh, MAT2A / RFU, CCT5 / Fold change vs veh, CCT5 / RFU, WDR92 / Fold change vs veh, WDR92 / RFU, CUX1 / Fold change vs veh, CUX1 / RFU, TTC7A / Fold change vs veh, TTC7A / RFU, TMEM135 / Fold change vs veh, TMEM135 / RFU, DEPTOR / Fold change vs veh, DEPTOR / RFU, CPM / Fold change vs veh, CPM / RFU, DNAJB6 / Fold change vs veh, DNAJB6 / RFU, CACNA2D3 / Fold change vs veh, CACNA2D3 / RFU, DTX4 / Fold change vs veh, DTX4 / RFU, TFCP2 / Fold change vs veh, TFCP2 / RFU, GMCL1 /// GMCL1P1 / Fold change vs veh, GMCL1 /// GMCL1P1 / RFU, AEBP2 / Fold change vs veh, AEBP2 / RFU, SNHG1 /// SNORD22 /// SNORD25 /// SNORD26 /// SNORD27 /// SNORD28 /// SNORD29 /// SNORD31 / Fold change vs veh, SNHG1 /// SNORD22 /// SNORD25 /// SNORD26 /// SNORD27 /// SNORD28 /// SNORD29 /// SNORD31 / Fold change (Aza/veh), C12orf56 (ProbeSet 11735607_a_at) / Fold change (ACY-1035/veh), C12orf56 (ProbeSet 11735607_a_at) / Fold change (Aza/veh), FGFR1OP (ProbeSet 11751329_s_at) / Fold change (ACY-1035/veh), FGFR1OP (ProbeSet 11751329_s_at) / Fold change (Aza/veh), VPS36 (ProbeSet 11739960_a_at) / Fold change (ACY-1035/veh), VPS36 (ProbeSet 11739960_a_at) / RFU SYPL1 (11715823_x_at) / Fold change /veh SYPL1 (11715823_x_at) / RFU IGFBP7 (11715501_s_at) / Fold change /veh IGFBP7 (11715501_s_at) / RFU REEP3 (11722064_at) / Fold change /veh REEP3 (11722064_at) / RFU IGLL1 (11728026_x_at) / Fold change /veh IGLL1 (11728026_x_at): dose or concentration left out as unconfirmed
Conditions: MV-4-11 cells, 48 hours

Structure (SMILES): Nc1ccc(-c2cccs2)cc1NC(=O)c1ccc2c(c1)cc(C1CC1)n2CCN1CCOCC1 [ACY-1035]
- Fold change /veh SOX15 (11748057_x_at): 0.91
